Experimental data reported in US12365658B2, “Benzothia(di)azepine compounds and their use as bile acid modulators” (Albireo AB, priority 2021, dated 2025).

Columns and labels:
[1] = target: T1, Human IBAT (Homo sapiens, UniProt Q12908); test: IBAT (h/m) assay, human IBAT-overexpressing cells, 3H-taurocholic acid uptake; format: cell-based; conditions: 0.25 μM 3H-taurocholic acid and 5 μM cold taurocholic acid, 20 minutes, highest test concentration 10 μM, read-out: hIBAT IC50
T1 construct: expressed in transfected cells; kept under Puromycin selection
T1 sequence (Q12908 1-348): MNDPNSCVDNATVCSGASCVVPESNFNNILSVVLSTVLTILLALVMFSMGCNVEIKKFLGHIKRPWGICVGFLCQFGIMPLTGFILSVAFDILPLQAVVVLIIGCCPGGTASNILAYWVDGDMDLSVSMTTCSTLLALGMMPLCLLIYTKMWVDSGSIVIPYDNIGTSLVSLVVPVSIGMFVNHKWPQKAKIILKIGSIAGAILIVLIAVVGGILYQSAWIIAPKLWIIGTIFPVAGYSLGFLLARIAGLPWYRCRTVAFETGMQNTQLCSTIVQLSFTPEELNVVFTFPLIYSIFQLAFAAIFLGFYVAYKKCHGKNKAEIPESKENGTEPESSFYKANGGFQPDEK
Description: IBAT (h/m) Assay Protocol
10,000 cells (Human or Mouse IBAT-overexpressing cells) were seeded in 96-wells plate (Corning CLS3809) in 200 μL MEM-alpha medium (Gibco 12571-063) supplemented with 10% FBS (Gibco 10438026) containing Puromycin (Gibco A1113803) (10 μg/mL) and incubated at 37° C. in 5% CO2 for 48 hours. After incubation, media was decanted from the wells and cells were washed two times with 300 μL of basal MEM-alpha medium (FBS-free). After decanting basal MEM-alpha medium each time, plates were tapped against paper towel to ensure maximum removal of residual media. Test inhibitor dilutions (highest test concentration being 10 μM, 3-fold serial dilution, 10 points) prepared in DMSO (Sigma D2650) were added in incubation mix (maintaining 0.2% final DMSO concentration) containing 0.25 μM 3H-taurocholic acid (ARC ART-1368) and 5 μM of cold taurocholic acid (Sigma T4009). 50 μL of incubation mix containing test inhibitors was then added to the wells (in duplicate) and the plates were incubated for 20 minutes in a CO2 incubator at 37° C. After incubation, the reaction was stopped by keeping the plates on ice water mix for 2-3 minutes and then the incubation mix was aspirated completely from the wells. The wells were washed two times with 250 μL of chilled unlabelled 1 mM taurocholic acid dissolved in HEPES (Gibco 15630080)-buffered (10 mM) HBSS (Gibco 14175079) (pH 7.4). The plates were tapped against a paper towel after every wash to ensure maximum removal of blocking buffer.
(§1) 100 μL of MicroScint-20 (PerkinElmer 6013621) was added to the wells and kept overnight at room temperature before reading the plates in TopCount NXT™ Microplate Scintillation and Luminescence Counter from PerkinElmer under 3H Test protocol (set at 120 seconds reading time per well).
(§2) Preparation of Test Compound Dilutions
(§3) All test compounds were provided in powder form at room temperature. 10 mM DMSO stocks of the test compounds were prepared, aliquoted and stored at −20° C. From the 10 mM DMSO stock of the compounds, a 3-fold serial dilution in DMSO was prepared to get a total of 10 dilutions of the test compounds. 0.5 μL of this dilution in DMSO was added to 250 μL of FBS-free basal media containing 3H-taurocholic acid and cold taurocholic acid to prepare the incubation mixture.

[2] = target: T2, Human LBAT (Homo sapiens, UniProt Q14973); test: LBAT (h/m) assay, human LBAT-overexpressing cells, 3H-taurocholic acid uptake; format: cell-based; conditions: 0.3 μM 3H-taurocholic acid and 7.5 μM cold taurocholic acid, 20 minutes, read-out: hLBAT IC50
T2 construct: expressed in transfected cells; kept under Geneticin selection
T2 sequence (Q14973 1-349): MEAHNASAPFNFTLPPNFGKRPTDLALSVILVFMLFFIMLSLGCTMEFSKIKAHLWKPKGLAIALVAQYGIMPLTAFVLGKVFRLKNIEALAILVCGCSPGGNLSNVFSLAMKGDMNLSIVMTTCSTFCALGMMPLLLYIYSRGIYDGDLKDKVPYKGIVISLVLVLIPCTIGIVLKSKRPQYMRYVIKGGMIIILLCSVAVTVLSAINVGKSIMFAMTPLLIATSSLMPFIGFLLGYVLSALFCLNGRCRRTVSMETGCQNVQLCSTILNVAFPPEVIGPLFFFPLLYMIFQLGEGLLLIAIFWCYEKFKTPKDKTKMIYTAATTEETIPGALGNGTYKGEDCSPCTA
Description: LBAT (h/m) Assay Protocol
20,000 cells (Human or Mouse LBAT-overexpressing cells) were seeded in 96-wells plate (Corning CLS3809) in 100 μL MEM-alpha medium (Gibco 12571-063) supplemented with 10% FBS (Gibco 10438026) containing Geneticin (Gibco 10131-027) (1 mg/mL) and incubated at 37° C. in 5% CO2 for 24 hours. After incubation, media was decanted from the wells and cells were washed two times with 300 μL of basal MEM-alpha medium (FBS-free). After decanting basal MEM-alpha medium each time, plates were tapped against paper towel to ensure maximum removal of residual media.
For human LBAT, incubation mix was prepared by adding test inhibitor dilutions (3-fold serial dilution in DMSO (Sigma D2650), 10 points) in MEM-alpha (without FBS) containing 0.3 μM 3H-taurocholic acid (ARC ART-1368) and 7.5 μM cold taurocholic acid (Sigma T4009) (maintaining 0.2% final DMSO concentration). For mouse LBAT, incubation mix was prepared by adding test inhibitor dilutions (3-fold serial dilution in DMSO, 10 points) in MEM-alpha (without FBS) containing 0.3 μM 3H-taurocholic acid and 25 μM cold taurocholic acid maintaining 0.2% final DMSO concentration).
50 μL of incubation mix containing test inhibitors was then added to the wells (in duplicate) and the plates were incubated for 20 minutes in a CO2 incubator at 37° C. After incubation, the reaction was stopped by keeping the plates on ice water mix for 2-3 minutes and then the incubation mix was aspirated completely from the wells. The wells were washed two times with 250 μL of chilled unlabelled 1 mM taurocholic acid dissolved in HEPES (Gibco 15630080)-buffered (10 mM) HBSS (Gibco 14175079) (pH 7.4). The plates were tapped against a paper towel after every wash to ensure maximum removal of blocking buffer.
as §1, with “well, with normal plate orientation).” for “well).”
as §2, §3

Row | SMILES | IC50 [1] [nM] | IC50 [2] [nM]
1 | CCCCC1CN(c2ccccc2)c2cc(SC)c(OCC(OC)C(=O)O)cc2S(=O)(=O)N1C (single isomer, unassigned) [32, diastereomer 2] | 4780 | 32
2 | CCCCC1CN(c2ccccc2)c2cc(SCC)c(OCC3(C(=O)O)CC3)cc2S(=O)(=O)N1C (single isomer, unassigned) [8, enantiomer 2] | 4970 | 591
3 | CCCCC1CN(c2ccccc2)c2cc(SC)c(OCC(OC)C(=O)O)cc2S(=O)(=O)N1C (single isomer, unassigned) [31, stereoisomer 1] |  | 5680
4 | CCCCC1CN(c2ccccc2)c2cc(SC)c(OCCC(=O)O)cc2S(=O)(=O)C1 (single isomer, unassigned) [26, enantiomer 1] |  | 59
5 | CCCCC1CN(c2ccccc2)c2cc(SC)c(OCC(OC)C(=O)O)cc2S(=O)(=O)N1C (single isomer, unassigned) [31, stereoisomer 2] | 2090 | 22
6 | CCCCC1CN(c2ccccc2)c2cc(SC)c(OCC(O)C(=O)O)cc2S(=O)(=O)C1 (centres unmarked) [Example 28, 3-((3-butyl-7-(methylthio)-1,1-dioxido-5-phenyl-2,3,4,5-tetrahydro-1,5-benzothiazepin-8-yl)oxy)-2-hydroxypropanoic acid] |  | 187
7 | CCCCC1CN(c2ccccc2)c2cc(SC)c(OCC(OC)C(=O)O)cc2S(=O)(=O)N1C (centres unmarked) [Example 30, 3-((3-butyl-2-methyl-7-(methylthio)-1,1-dioxido-5-phenyl-2,3,4,5-tetrahydro-1,2,5-benzothiadiazepin-8-yl)oxy)-2-methoxypropanoic acid] |  | 64
8 | CCCCC1CN(c2ccccc2)c2cc(SC)c(OCCC(=O)O)cc2S(=O)(=O)C1 (centres unmarked) [Example 25, 3-((3-butyl-7-(methylthio)-1,1-dioxido-5-phenyl-2,3,4,5-tetrahydro-1,5-benzothiazepin-8-yl)oxy)propanoic acid] |  | 93
9 | CCCCC1CN(c2ccccc2)c2cc(SC)c(OCC(F)(F)C(=O)O)cc2S(=O)(=O)N1C (single isomer, unassigned) [21, enantiomer 1] | > 10000 | > 333
10 | CCCCC1CN(c2ccccc2)c2cc(SC)c(OCC(C)(C)C(=O)O)cc2S(=O)(=O)N1C (centres unmarked) [Example 1, 3-((3-Butyl-2-methyl-7-(methylthio)-1,1-dioxido-5-phenyl-2,3,4,5-tetrahydro-1,2,5-benzothiadiazepin-8-yl)oxy)-2,2-dimethylpropanoic acid] |  | 9.8
11 | CCCCC1CN(c2ccccc2)c2cc(SCC)c(OCC(C)(C)C(=O)O)cc2S(=O)(=O)N1C (single isomer, unassigned) [6, enantiomer 1] |  | 536
12 | CCCCC1CN(c2ccccc2)c2cc(SC)c(OCC(F)(F)C(=O)O)cc2S(=O)(=O)N1C (centres unmarked) [Example 20, 3-((3-butyl-2-methyl-7-(methylthio)-1,1-dioxido-5-phenyl-2,3,4,5-tetrahydro-1,2,5-benzothiadiazepin-8-yl)oxy)-2,2-difluoropropanoic acid] | 259 | 1.1
13 | CCCCC1CN(c2ccccc2)c2cc(SC)c(OCC(C)(C)C(=O)O)cc2S(=O)(=O)N1C (single isomer, unassigned) [2, enantiomer 1] | ≥ 10000 | 2280

Now from value to compound:

Row | IC50 [1] [nM] | IC50 [2] [nM] | SMILES
14 | 464 | 3.4 | CCCCC1CN(c2ccc(F)cc2)c2cc(SC)c(OCC3(C(=O)O)CC3)cc2S(=O)(=O)N1 (centres unmarked) [Example 16, 1-(((3-butyl-5-(4-fluorophenyl)-7-(methylthio)-1,1-dioxido-2,3,4,5-tetrahydro-1,2,5-benzothiadiazepin-8-yl)oxy)methyl)cyclopropane-1-carboxylic acid]
15 | ≥ 10000 | 673 | CCCCC1CN(c2ccccc2)c2cc(SC)c(OCC3(C(=O)O)CC3)cc2S(=O)(=O)N1C (single isomer, unassigned) [4, enantiomer 1]
16 | > 3330 | 4.2 | CCCCC1CN(c2ccccc2)c2cc(SCC)c(OCC3(C(=O)O)CC3)cc2S(=O)(=O)N1 (centres unmarked) [Example 15, 1-(((3-butyl-7-(ethylthio)-1,1-dioxido-5-phenyl-2,3,4,5-tetrahydro-1,2,5-benzothiadiazepin-8-yl)oxy)methyl)cyclopropane-1-carboxylic acid]
17 | 678 | 10 | CCCCC1CN(c2ccc(F)cc2)c2cc(SC)c(OCC3(C(=O)O)CC3)cc2S(=O)(=O)C1 (centres unmarked) [Example 10, 1-(((3-butyl-5-(4-fluorophenyl)-7-(methylthio)-1,1-dioxido-2,3,4,5-tetrahydro-1,5-benzothiazepin-8-yl)oxy)methyl)cyclopropane-1-carboxylic acid]
18 | 460 | 3.3 | CCCCC1CN(c2ccc(F)cc2)c2cc(SCC)c(OCC3(C(=O)O)CC3)cc2S(=O)(=O)N1 (centres unmarked) [Example 18, 1-(((3-butyl-7-(ethylthio)-5-(4-fluorophenyl)-1,1-dioxido-2,3,4,5-tetrahydro-1,2,5-benzothiadiazepin-8-yl)oxy)methyl)cyclopropane-1-carboxylic acid]
19 | 167 | 4.5 | CCCCC1CN(c2ccc(F)cc2)c2cc(SC)c(OCC3(C(=O)O)CC3)cc2S(=O)(=O)N1C (centres unmarked) [Example 11, 1-(((3-butyl-5-(4-fluorophenyl)-2-methyl-7-(methylthio)-1,1-dioxido-2,3,4,5-tetrahydro-1,2,5-benzothiadiazepin-8-yl)oxy)methyl)cyclopropane-1-carboxylic acid]
20 | 2700 | 5.3 | CCCCC1CN(c2ccc(F)cc2)c2cc(SC)c(OCC(C)(C)C(=O)O)cc2S(=O)(=O)C1 (centres unmarked) [Example 9, 3-((3-butyl-5-(4-fluorophenyl)-7-(methylthio)-1,1-dioxido-2,3,4,5-tetrahydro-1,5-benzothiazepin-8-yl)oxy)-2,2-dimethylpropanoic acid]
21 | > 3330 | 106 | CCCCC1CN(c2ccc(F)cc2)c2cc(SCC)c(OCC3(C(=O)O)CC3)cc2S(=O)(=O)N1 (single isomer, unassigned) [19, enantiomer 2]
